This note sets out measurements from PubChem BioAssay AID1996.

SMILES strings stand for the structures. ≈ marks a conversion by molar mass, not a printed value. Where only a bound is given, the exact number is not on record here.

The conditions of this data set: buffer; pH 7.4; 200.0 µM.
The molecule `O=C(Cn1cnc2ccccc2c1=O)NCc1cccs1` returned a solubility (kinetic) of 35.6 µg/mL (≈ 119 µM). The figure for `CC(=O)Nc1ccc(CN2CCN(CC=C(C)C)C(CCO)C2)cc1` (centres undefined) is greater than 51.8 µg/mL. The same measure for `CN(C(=O)CSc1nc2ccc(Cl)cc2[nH]1)C1CCS(=O)(=O)C1` (centres undefined): greater than 56.1 µg/mL; for `CC(NC(=O)c1ccco1)c1nc(-c2ccc(C(C)(C)C)cc2)no1` (centres undefined): 0.9 µg/mL (≈ 2.65 µM). The same measure for `COCCCNc1ncnc2c1nc1n2CCCC1`: greater than 39.2 µg/mL. Take `Cc1cc(C)nc(NC(=S)NC(=O)c2ccccc2F)n1`: the solubility (kinetic) was 8.1 µg/mL (≈ 26.6 µM). Consider `N#CC1=C(S)N(c2ccccc2)C(c2ccco2)NC1=O` (centres undefined), for which the solubility (kinetic) was 37 µg/mL (≈ 124 µM). On to `O=C(Nc1ccc(N2CCCCC2)c(S(=O)(=O)Nc2ccccc2Cl)c1)c1cccnc1`, for which the solubility (kinetic) came to 1.5 µg/mL (≈ 3.18 µM). Take `Cc1cccc(N2CCN(C(=O)/C=C/c3cccs3)CC2C)c1` (centres undefined): the kinetic solubility was 22.8 µg/mL (≈ 69.8 µM). `CC1CCCN(Cc2c(O)ccc3c4c(c(=O)oc23)CCCC4)C1` (centres undefined) displayed a kinetic solubility of 44 µg/mL (≈ 134 µM). `COc1cc(C(=O)Nc2ccc(C)cn2)c([N+](=O)[O-])cc1OC` gave a kinetic solubility greater than 47.6 µg/mL. The same measure for `CCC(C)(C)NC(=O)CCCSc1nc2ccccc2[nH]1`: 28.7 µg/mL (≈ 94 µM); for `O=C(CN1C(=O)COc2ccccc21)Nc1ccccc1F`: 21.4 µg/mL (≈ 71.3 µM); for `CCCc1cc(=O)[nH]c(SCc2nc3ccccc3o2)n1`: greater than 45.2 µg/mL. Consider `COC(=O)c1sc(NC(=O)c2ccco2)c(C#N)c1C`, for which the solubility (kinetic) amounted to 3.7 µg/mL (≈ 12.7 µM).

`Cc1cc(Oc2ccc([N+](=O)[O-])cc2)nc(N2CCOCC2)n1` had a solubility (kinetic) of 0.4 µg/mL (≈ 1.26 µM).

Molecule `Cc1ccc(NC(=O)c2cnccn2)c(C)c1` had a solubility (kinetic) of 32.7 µg/mL (≈ 144 µM).

Consider `CC(=O)Nc1ccc(SCc2ncc(-c3ccccc3)o2)cc1`, for which the kinetic solubility stood at 45.3 µg/mL (≈ 140 µM). Consider `Cc1ccc(-c2csc(NC(=O)c3ccc([N+](=O)[O-])o3)n2)cc1`, for which the kinetic solubility turned out to be 1.2 µg/mL (≈ 3.64 µM). The same measure for `O=C(CCOc1ccccc1)Nc1ccc(Br)cc1`: less than 0.7 µg/mL; for `Cc1ccc(C)c(S(=O)(=O)N2CCN(C(=O)[C@@H]3CCCN3C(=O)c3cccs3)CC2)c1`: 40.4 µg/mL (≈ 87.5 µM); for `COc1ccc(CNC(=O)CCSCc2ccc(C)cc2)cc1`: 16.5 µg/mL (≈ 50.1 µM). The molecule `CC(C)(CN)CC(=O)O.Cl` registered a kinetic solubility of 23.2 µg/mL. On to `COc1ccc(NC(=O)C(Br)C(C)C)cc1` (centres undefined), for which the solubility (kinetic) is 40.7 µg/mL (≈ 142 µM). Molecule `Cc1ccc(C(=O)CCC(=O)Nc2cc(C)ccn2)cc1` yielded a kinetic solubility of 6.2 µg/mL (≈ 22 µM). The same measure for `O=C(NCC1CCCO1)c1cccc2ccccc12` (centres undefined): greater than 38.3 µg/mL; for `COc1ccccc1NS(=O)(=O)c1cccc(NS(=O)(=O)c2cc(C(=O)O)ccc2OC)c1`: greater than 73.9 µg/mL; for `COc1ccccc1N(CC(=O)N1CCCC1)S(=O)(=O)c1cc([N+](=O)[O-])ccc1Cl`: 6.8 µg/mL (≈ 15 µM). `CCOc1cccc(OCCCCn2cnc3ccccc3c2=O)c1`: the solubility (kinetic) amounted to 3.4 µg/mL (≈ 10 µM). The same measure for `COc1ccc(N2C(=O)CCC2=O)c(OC)c1`: 33.8 µg/mL (≈ 144 µM); for `O=c1c2ccc(Cl)cc2[nH]c(=S)n1-c1cccnc1`: 10.8 µg/mL (≈ 37.3 µM); for `Cc1ccc(NC(=O)CN(C)C(=O)/C=C/c2ccc3c(c2)OCO3)cc1`: 6.8 µg/mL (≈ 19.3 µM). Consider `O=c1c2c([nH]c3ccccc13)CCC2`, for which the kinetic solubility was greater than 27.8 µg/mL. The figure for `O=C1CNC(=S)N1Cc1ccc(Cl)cc1` is greater than 36.1 µg/mL; for `O=C(CCCOc1ccc(Cl)cc1Cl)Nc1ncccn1` it is 7.7 µg/mL (≈ 23.6 µM); for `Cc1nc(N)ncc1-c1ccc2c(c1)OCO2` it is 10.8 µg/mL (≈ 47.1 µM). The molecule `CCCCNC(=O)c1ccc(CS(=O)(=O)Cc2ccccc2F)o1` returned a kinetic solubility greater than 53 µg/mL. The figure for `CCOc1ccc(Oc2ccc(Cl)cc2N)cc1.Cl` is 4.5 µg/mL; for `O=C(NCCc1cccs1)c1ccc(Cl)cc1` it is greater than 39.9 µg/mL.

With `O=c1ccnc(SCCc2ccccc2)[nH]1`, the kinetic solubility was greater than 34.8 µg/mL. The same measure for `Cc1ccc(NC(=S)Nc2cccc3ccccc23)cc1`: 1.5 µg/mL (≈ 5.13 µM). The same measure for `COC(=O)CC1C(=O)NCCN1C(=S)Nc1ccc(F)cc1` (centres undefined): greater than 48.8 µg/mL.

The molecule `O=C(NCC1CC1)Nc1ccc(Cl)cc1` registered a kinetic solubility of 18.9 µg/mL (≈ 84.1 µM). The molecule `Cn1c(=O)c(C(=O)c2ccc(S(C)(=O)=O)c(Cl)c2Cl)c(O)c2ccccc21` showed a kinetic solubility greater than 63.9 µg/mL. `Cc1nc(-c2ccccc2)sc1C(=O)NN` displayed a kinetic solubility greater than 35 µg/mL. In the case of `Cc1ccc(CCC(=O)Nc2ccc(Br)cc2)o1`, the solubility (kinetic) was 4.2 µg/mL (≈ 13.6 µM). Regarding `Cc1c(C(=O)Oc2cccc3cccnc23)cccc1[N+](=O)[O-]`, the kinetic solubility was found to be 7.9 µg/mL (≈ 25.6 µM).

Regarding `CC(C)(CO)NCC#Cc1ccccc1.Cl`, the solubility (kinetic) was greater than 36 µg/mL. As to `CCOC(=O)C(=CNc1ccc(C(F)(F)F)cc1)C(=O)OCC`, the kinetic solubility came out at 2.7 µg/mL (≈ 8.15 µM).

Turning to `COc1ccc(-c2cc(C(=O)Nc3ccc(OC)c(OC)c3)no2)cc1`, the kinetic solubility is less than 0.4 µg/mL. The figure for `Cc1nc2c(ncn2-c2ccccc2)c(=O)n1NC(=O)CN1CCCC1` is greater than 52.9 µg/mL; for `CCNC(=O)CC1C(=O)N(c2ccc(C)cc2)C(=O)N1CCC(C)C` (centres undefined) it is greater than 51.8 µg/mL.

In the case of `COc1ccc(S(=O)(=O)N2CCOCC2)cc1NC(=O)COc1ccc2c(C)cc(=O)oc2c1`, the kinetic solubility turned out to be 4.1 µg/mL (≈ 8.39 µM). The same measure for `CCN(CC)C(=O)Cc1ccccc1`: greater than 28.7 µg/mL. Consider `Cc1ccc(NC(=S)Nc2ccc(F)cc2)cc1C`, for which the kinetic solubility worked out at 12.2 µg/mL (≈ 44.5 µM). The same measure for `O=S(=O)(NCc1ccc(Cl)cc1Cl)c1cccs1`: 40.6 µg/mL (≈ 126 µM); for `CC(=O)NC(Cc1ccccc1)C(C)=O` (centres undefined): greater than 30.8 µg/mL. The same measure for `Cc1ccc2nc(N3CCOCC3)c(C=O)cc2c1`: 25.8 µg/mL (≈ 101 µM).

As for `CCN(CC(=O)NCc1cccs1)C(=O)c1ccc(S(=O)(=O)N(C)c2ccccc2)cc1`, the kinetic solubility is greater than 70.7 µg/mL.

Regarding `COc1ccc(S(N)(=O)=O)cc1C(=O)OCC(=O)N1CCCC(C)C1` (centres undefined), the kinetic solubility was greater than 55.6 µg/mL. The figure for `Cc1cccc(CC(=O)NC2CCCCCC2)c1` is 30.5 µg/mL (≈ 124 µM).

In turn, `O=C(c1cc(-c2cccc(Cl)c2)on1)N1CCCCCC1` showed a kinetic solubility of 14 µg/mL (≈ 45.9 µM). `CS(=O)(=O)c1ccc2nc(NC(=O)c3ccc(N4C(=O)CCC4=O)cc3)sc2c1` gave a solubility (kinetic) of 0.3 µg/mL (≈ 0.699 µM). Regarding `S=C(NCCc1ccccn1)Nc1cc(Cl)cc(Cl)c1`, the kinetic solubility amounted to 19 µg/mL (≈ 58.2 µM). Regarding `CCC1CN(C(=O)NCc2cccc(OC)c2)c2cc(Cl)ccc2O1` (centres undefined), the kinetic solubility stood at 4.5 µg/mL (≈ 12.5 µM). The same measure for `COc1ccccc1NC(=O)c1coc(=O)c(Br)c1`: 5.4 µg/mL (≈ 16.7 µM); for `CN(C)c1cc(-c2ccc([N+](=O)[O-])cc2)oc(=O)c1Cl`: 0.9 µg/mL (≈ 3.05 µM). The figure for `Cc1ccccc1OCC(O)CNC1CCCC1.Cl` (centres undefined) is 38.2 µg/mL. The molecule `Cc1ccccc1C(=O)Nc1nc2c(C)csc2c(=O)s1` showed a kinetic solubility of less than 0.3 µg/mL. Molecule `CCCC(=O)N1CCN(c2nc3ccc(Cl)cc3s2)CC1` displayed a solubility (kinetic) of 46.3 µg/mL (≈ 143 µM). In the case of `Cc1cccc(NC(=O)CCCN2C(=O)C3CC=CCC3C2=O)c1` (centres undefined), the solubility (kinetic) was greater than 49 µg/mL.

Molecule `Nc1cc(=O)[nH]c(SCC(=O)Nc2cccc(Cl)c2Cl)n1` returned a kinetic solubility of 8.4 µg/mL (≈ 24.3 µM).

`Nc1ccn(C2CC(O)C(CO)O2)c(=O)n1` (centres undefined) yielded a solubility (kinetic) greater than 34.1 µg/mL. The figure for `O=C1/C(=C/c2cccnc2)CC/C1=C\c1cccnc1` is 17.1 µg/mL (≈ 65.2 µM); for `Cc1ccc(S(=O)(=O)N2CCOCC2)cc1C(=O)N1CC(C)CC(C)C1` (centres undefined) it is 35.9 µg/mL (≈ 94.3 µM). Molecule `Cc1ccc(Nc2ncnc(-n3cccc3)n2)cc1Cl` yielded a solubility (kinetic) of less than 0.1 µg/mL. The molecule `O=C1CCCN1CN(C(=O)c1ccccc1)c1ccccc1` came in with a solubility (kinetic) greater than 44.2 µg/mL.

`Cc1cccc(NC(=S)N(CCN(C)C)C(C)c2cccnc2)c1` (centres undefined) showed a solubility (kinetic) greater than 51.4 µg/mL.

Molecule `O=c1c2nccnc2[nH]c(=S)n1Cc1ccccc1Cl` gave a solubility (kinetic) greater than 45.7 µg/mL. The same measure for `CCOC(=O)c1ccc(S(=O)(=O)Nc2cc(S(=O)(=O)N3CCOCC3)ccc2O)cc1`: 69.5 µg/mL (≈ 148 µM); for `O=C(NC1CCCCCC1)c1cc2ccccc2oc1=O`: 3.4 µg/mL (≈ 11.9 µM); for `CC(=O)OC1OCCOC1NC(=S)Nc1ccc(C)cc1` (centres undefined): 44.4 µg/mL (≈ 143 µM).

In the case of `Cc1cc(=O)[nH]c(NCc2ccccc2)n1`, the solubility (kinetic) worked out at 30.6 µg/mL (≈ 142 µM). `Cc1cc(NC(=O)Cn2cnc3sc(C)c(C)c3c2=O)no1` registered a kinetic solubility of 17.3 µg/mL (≈ 54.3 µM).

`Cc1c(Cl)cccc1NC(=O)CCN1CCC(C(N)=O)CC1` gave a solubility (kinetic) greater than 48.6 µg/mL. The same measure for `O=C(OCc1ccccc1)N1CCc2ccccc21`: 0.9 µg/mL (≈ 3.55 µM).

`CCOc1ccc2c(c1)[nH]c(=S)n2C` registered a kinetic solubility greater than 31.2 µg/mL.

`CC1CN(c2nc(Nc3ccccc3)nc(N)c2[N+](=O)[O-])CC(C)O1` (centres undefined): the kinetic solubility was 48.1 µg/mL (≈ 140 µM). Turning to `CC(C)(C)C(=O)/C=C1\NC(=O)CS1`, the solubility (kinetic) is greater than 29.9 µg/mL. `Cc1cc(NC(=O)CN2C(=O)NC(C)(c3ccc(Cl)cc3Cl)C2=O)no1` (centres undefined) came in with a kinetic solubility of 7.4 µg/mL (≈ 18.6 µM). In turn, `C=CCN1CCN(C(=O)c2cc3c(s2)CCCC3)CC1` displayed a solubility (kinetic) greater than 43.6 µg/mL. `CCOc1ccc2nc(N(CCN(C)C)C(=O)c3cc4ccccc4cc3OC)sc2c1.Cl` came in with a solubility (kinetic) of 4.2 µg/mL.

In turn, `O=C(c1cc(COc2ccc(F)cc2F)on1)N1CCSCC1` displayed a kinetic solubility of 35.8 µg/mL (≈ 105 µM). For the molecule `COc1ccc(N2C(=O)NC(=O)/C(=C\c3ccccc3[N+](=O)[O-])C2=O)cc1`, the kinetic solubility was found to be 54.4 µg/mL (≈ 148 µM).

The molecule `Cc1ccc(S(=O)(=O)N2CCOC2C(Cl)(Cl)Cl)cc1` (centres undefined) had a solubility (kinetic) of 2.6 µg/mL (≈ 7.54 µM). The same measure for `CNC(=S)Nc1ccc(OC(F)(F)F)cc1`: 35.4 µg/mL (≈ 141 µM).

In turn, `CN(c1ccccc1C(=O)Nc1ccc2ccccc2c1)S(C)(=O)=O` returned a kinetic solubility of 48.6 µg/mL (≈ 137 µM).

In the case of `CCOC(=O)c1cc(-c2c(Cl)cccc2Cl)no1`, the kinetic solubility amounted to 12.1 µg/mL (≈ 42.3 µM). The same measure for `O=C(Nc1ccc2c(c1)Cc1ccccc1-2)c1cccnc1`: 1.4 µg/mL (≈ 4.89 µM); for `Nc1ccc(S(=O)(=O)Nc2nc3ccccc3o2)cc1`: greater than 43.4 µg/mL. The figure for `O=C(NC12CC3CC(CC(C3)C1)C2)N1CCN(C2CCCCC2)CC1` is 42.4 µg/mL (≈ 123 µM).

`CC1=C(C(=O)OCCOC(C)C)C(c2cccc3ccccc23)NC(=O)N1` (centres undefined) had a solubility (kinetic) of 4.6 µg/mL (≈ 12.5 µM). As to `COc1ccccc1C(=O)N=c1sc2c(C)ccc(OC)c2n1C`, the kinetic solubility was found to be 1.8 µg/mL (≈ 5.26 µM). In turn, `COc1ccc(F)cc1S(=O)(=O)N1CCN(c2ccccn2)CC1` had a kinetic solubility of 6.1 µg/mL (≈ 17.4 µM).
